Measured values from patent publication US20080182806A1, “USE OF ACETYLATED OR ESTERIFICATED AZACYTIDINE, DECITABINE, OR OTHER NUCLEOSIDE ANALOGS AS ORAL AGENTS FOR THE TREATMENT OF TUMORS OR OTHER DYSPLASTIC SYNDROMES SENSITIVE TO HYPOMETHYLATING AGENTS” (Nevada Cancer Institute, priority 2007, published 2008).

Columns and labels:
global DNA methylation = assay: Global DNA methylation in mouse tissues (Epigentek Methylamp Global DNA Methylation Quantification Kit); type: in vivo, mice; conditions: for effect on global DNA methylation in the kidneys after 48 hours / reduction in global DNA methylation in the kidneys: 38 mg/kg TAC p.o. or 25 mg/kg ACT i.v.; for reduction in global DNA methylation in the kidneys: within 24 hours
Protocol: The pharmacodynamic effect of TAC and ACT was determined at 24 and 48 hours following drug administration after the female C57/BL6 mice were euthanized, their tissues rapidly harvested, snap-frozen in liquid nitrogen, and stored at −80° C. The effect on methylation was determined by using the Epigentek Methylamp™ Global DNA Methylation Quantification Kit. Isolated genomic DNA from mouse tissues 24 or 48 hours after treatment with 25 mg/kg ACT i.v. and 38 mg/kg TAC p.o., methylation status was determined using 100 ng of each gDNA sample.

[1] = test system: myelodysplastic syndromes; conditions: 75 mg/m^2 subcutaneously daily for 7 days every 4 weeks, cited from earlier work
[2] = Pharmacokinetics and metabolism of TAC in mice (plasma LC/MS/MS); type: in vivo; conditions: female, C57/BL6, mouse
Protocol: The title product and its active metabolite azacytidine (ACT) were then subjected to LC/MS/MS analysis using the following protocol. Stock solutions were prepared by weighing out 5-10 mg of TAC which was dissolves in methanol to a final concentration of about 0.5 mg/ml. The solution was labeled as “TAC Stock.” 2-3 mg of ACT were then weighed and dissolved in methanol to a final concentration of about 0.2 mg/ml. The solution was labeled as “ACT Stock.” Finally, the TAC and ACT stocks were diluted to a concentration of about 50 μg/ml in methanol, and labeled as “ACT/TAC Stock.” All solutions were stored at −20° C. […]
Samples were then initially prepared as follows. A measured aliquot of the acetonitrile extracted plasma sample was removed and placed into a 10×75 mm disposable glass test tube, followed by evaporating liquid down to approximately 50 μl under nitrogen at 37° C., diluting with 1 ml 2% phosphoric acid, and vortexing for 10 seconds at 3,000 rpm.
The samples were then analyzed by the SPE, HPLC and MS/MS methods. […]
Individual concentration-time data were analyzed using noncompartmental methods using WinNonlin Professional (Pharsight, Mountain View, Calif.). […] The terminal rate constant (λz) is determined from the slope of the terminal phase of the plasma concentration-time curve using uniform weight. The terminal half-life (T1/2) was calculated as 0.693 divided by λz. […]

Lymphoid leukemia L1210 = assay: Survival of leukemic BDF1 mice inoculated i.p. with L1210 cells; type: in vivo
Protocol: Lymphoid leukemia L1210 was carried in BDF1 mice by weekly i.p. passages. Ascites fluid was aspirated from a donor mouse and sampled, and an aliquot was carefully diluted and counted in a hemocytometer. The original suspension of cells was then diluted appropriately in […] medium to 1×10^6 cells/ml. and injected i.p. (1×10^5 cells/0.1 ml/mouse) into recipient BDF1 mice.
A daily oral administration injection of TAC (38 mg/kg) diluted in PBS was given to leukemic BDF1 mice by oral gavage starting 24 hours from the inoculation of L1210 cells for a total of 5 days. A group of untreated leukemic mice of the same strain, sex, age, and weight served as controls.

[3] = test system: myelodysplastic syndromes; conditions: 15 mg/m^2 intravenously over 4 hours three times a day for 3 days; cited from earlier work

half-life ([2]; iv, 25 mg/kg, azacytidine administered i.v., mice plasma) [h] | Compound | effect on global DNA methylation in the kidneys after 48 hours (global DNA methylation) | reduction in global DNA methylation in the kidneys (global DNA methylation) [%] | mean time to response [1] | response ([1]; higher-risk groups) [%] | response rate ([1]; lower-risk patients with refractory anemia) [%] | further decrease in methylation in spleen compared to untreated tissue (global DNA methylation; spleen, later time point, oral TAC 38 mg/kg) [%] | median survival time (Lymphoid leukemia L1210; TAC 38 mg/kg daily by oral gavage for 5 days, starting 24 hours after L1210 inoculation) [days] | increased lifespan (Lymphoid leukemia L1210; TAC 38 mg/kg daily oral for 5 days versus untreated control group) [%] | concentration at 4 h ([2]; plasma, by 4 hours after oral administration of 38 mg/kg TAC, read-out: TAC plasma concentration (below the limit of detection)) [ng/mL] | overall response rate [3] [%]
4 to 5 | Nc1ncn([C@@H]2O[C@H](CO)[C@@H](O)[C@H]2O)c(=O)n1 [ACT, 4-amino-1-β-D-ribofuranosyl-1,3,5-triazin-2(1H)-one] | subsided | 50 | six | 61 | 60 |  |  |  |  | 
 | CC(=O)OC[C@H]1O[C@@H](n2cnc(N)nc2=O)[C@H](OC(C)=O)[C@@H]1OC(C)=O [TAC, 2′,3′,5′-triacetyl-5-azacytidine] | subsided | 50 |  |  |  | 40 | 14 | 55 | < 30 | 
 | Nc1ncn([C@H]2C[C@H](O)[C@@H](CO)O2)c(=O)n1 [decitabine, 4-amino-1-(2-deoxy-b-D-erythro-pentofuranosyl)-1,3,5-triazin-2(1H)-one] |  |  |  |  |  |  |  |  |  | 49
